Assay results taken from PubChem BioAssay (NCI).
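At the GI50, growth is halved. TGI marks complete inhibition of growth.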

Legend:
Test in all cases: NCI anticancer screen, dose series, 384-well format
786-0 renal = tested on: 786-0 renal
A498 renal = tested on: A498 renal
A549 NSCLC = tested on: A549 NSCLC
ACHN renal = tested on: ACHN renal
BT-549 breast = tested on: BT-549 breast
CAKI-1 renal = tested on: CAKI-1 renal
CCRF-CEM leukemia = tested on: CCRF-CEM leukemia
COLO 205 colon = tested on: COLO 205 colon
DU-145 prostate = tested on: DU-145 prostate
EKVX NSCLC = tested on: EKVX NSCLC
HCC-2998 colon = tested on: HCC-2998 colon
HCT-116 colon = tested on: HCT-116 colon
HCT-15 colon = tested on: HCT-15 colon
HL-60(TB) leukemia = tested on: HL-60(TB) leukemia
HOP-62 NSCLC = tested on: HOP-62 NSCLC
HOP-92 NSCLC = tested on: HOP-92 NSCLC
HS 578T breast = tested on: HS 578T breast
HT29 colon = tested on: HT29 colon
IGROV1 ovarian = tested on: IGROV1 ovarian
K-562 leukemia = tested on: K-562 leukemia
KM12 colon = tested on: KM12 colon
LOX IMVI melanoma = tested on: LOX IMVI melanoma
M14 melanoma = tested on: M14 melanoma
MALME-3M melanoma = tested on: MALME-3M melanoma
MCF7 breast = tested on: MCF7 breast
MDA-MB-231 breast = tested on: MDA-MB-231 breast
MDA-MB-435 melanoma = tested on: MDA-MB-435 melanoma
MDA-MB-468 breast = tested on: MDA-MB-468 breast
MOLT-4 leukemia = tested on: MOLT-4 leukemia
NCI-H226 lung = tested on: NCI-H226 lung
NCI-H23 lung = tested on: NCI-H23 lung
NCI-H322M lung = tested on: NCI-H322M lung
NCI-H460 NSCLC = tested on: NCI-H460 NSCLC
NCI-H522 lung = tested on: NCI-H522 lung
NCI/ADR-RES ovarian = tested on: NCI/ADR-RES ovarian
OVCAR-3 ovarian = tested on: OVCAR-3 ovarian
OVCAR-4 ovarian = tested on: OVCAR-4 ovarian
OVCAR-5 ovarian = tested on: OVCAR-5 ovarian
OVCAR-8 ovarian = tested on: OVCAR-8 ovarian
PC-3 prostate = tested on: PC-3 prostate
RPMI-8226 leukemia = tested on: RPMI-8226 leukemia
RXF 393 renal = tested on: RXF 393 renal
SF-268 CNS = tested on: SF-268 CNS
SF-295 CNS = tested on: SF-295 CNS
SF-539 CNS = tested on: SF-539 CNS
SK-MEL-28 melanoma = tested on: SK-MEL-28 melanoma
SK-MEL-5 melanoma = tested on: SK-MEL-5 melanoma
SK-OV-3 ovarian = tested on: SK-OV-3 ovarian
SN12C renal = tested on: SN12C renal
SNB-19 CNS = tested on: SNB-19 CNS
SNB-75 CNS = tested on: SNB-75 CNS
SW-620 colon = tested on: SW-620 colon
T-47D breast = tested on: T-47D breast
TK-10 renal = tested on: TK-10 renal
U251 glioblastoma = tested on: U251 glioblastoma
UACC-257 melanoma = tested on: UACC-257 melanoma
UACC-62 melanoma = tested on: UACC-62 melanoma
UO-31 renal = tested on: UO-31 renal

CNC(=O)c1cc2c(Oc3ccc(NC(=S)NC(=O)Cc4ccccc4)cc3F)ccnc2cc1OC
GI50 ([…]-0 renal): 8.3 µM
TGI (786-0 renal): 99.7 µM
GI50 (A498 renal): 8.59 µM
TGI (A498 renal): 81.7 µM
GI50 (A549 NSCLC): 12.3 µM
TGI (A549 NSCLC): > 100 µM
GI50 (ACHN renal): 5.11 µM
TGI (ACHN renal): 54.5 µM
GI50 (BT-549 breast): 3.42 µM
TGI (BT-549 breast): 9.66 µM
GI50 (CAKI-1 renal): 4.55 µM
TGI (CAKI-1 renal): 17.5 µM
GI50 (CCRF-CEM leukemia): 5.36 µM
TGI (CCRF-CEM leukemia): 28.8 µM
GI50 (COLO 205 colon): 12.1 µM
TGI (COLO 205 colon): > 100 µM
GI50 (DU-145 prostate): 34.8 µM
TGI (DU-145 prostate): > 100 µM
GI50 (EKVX NSCLC): 28.9 µM
TGI (EKVX NSCLC): > 100 µM
GI50 (HCC-2998 colon): > 100 µM
TGI (HCC-2998 colon): > 100 µM
GI50 (HCT-116 colon): 21 µM
TGI (HCT-116 colon): > 100 µM
GI50 (HCT-15 colon): 8.36 µM
TGI (HCT-15 colon): > 100 µM
GI50 (HL-60(TB) leukemia): 29.2 µM
TGI (HL-60(TB) leukemia): > 100 µM
GI50 (HOP-62 NSCLC): 17.9 µM
TGI (HOP-62 NSCLC): > 100 µM
GI50 (HOP-92 NSCLC): 1.5 µM
TGI (HOP-92 NSCLC): 7.58 µM
GI50 (HS 578T breast): 2.49 µM
TGI (HS 578T breast): 7.12 µM
GI50 (HT29 colon): 5.67 µM
TGI (HT29 colon): > 100 µM
GI50 (IGROV1 ovarian): 3.03 µM
TGI (IGROV1 ovarian): 17 µM
GI50 (K-562 leukemia): 0.486 µM
TGI (K-562 leukemia): 1.7 µM
GI50 (KM12 colon): 3.4 µM
TGI (KM12 colon): > 100 µM
GI50 (LOX IMVI melanoma): 8.61 µM
TGI (LOX IMVI melanoma): > 100 µM
GI50 (M14 melanoma): 8.36 µM
TGI (M14 melanoma): > 100 µM
GI50 (MALME-3M melanoma): 15.9 µM
TGI (MALME-3M melanoma): > 100 µM
GI50 (MCF7 breast): 14.5 µM
TGI (MCF7 breast): > 100 µM
GI50 (MDA-MB-231 breast): 7.39 µM
TGI (MDA-MB-231 breast): 83.2 µM
GI50 (MDA-MB-435 melanoma): 31.1 µM
TGI (MDA-MB-435 melanoma): > 100 µM
GI50 (MDA-MB-468 breast): 5.2 µM
TGI (MDA-MB-468 breast): 25.2 µM
GI50 (MOLT-4 leukemia): 2.2 µM
TGI (MOLT-4 leukemia): 10.6 µM
GI50 (NCI-H226 lung): 4.01 µM
TGI (NCI-H226 lung): 45.7 µM
GI50 (NCI-H23 lung): 1.95 µM
TGI (NCI-H23 lung): 23.7 µM
GI50 (NCI-H322M lung): 31.9 µM
TGI (NCI-H322M lung): > 100 µM
GI50 (NCI-H460 NSCLC): 20.1 µM
TGI (NCI-H460 NSCLC): > 100 µM
GI50 (NCI-H522 lung): 5.3 µM
TGI (NCI-H522 lung): 27.1 µM
GI50 (NCI/ADR-RES ovarian): 18.8 µM
TGI (NCI/ADR-RES ovarian): > 100 µM
GI50 (OVCAR-3 ovarian): 17.7 µM
TGI (OVCAR-3 ovarian): > 100 µM
GI50 (OVCAR-4 ovarian): 27.4 µM
TGI (OVCAR-4 ovarian): > 100 µM
GI50 (OVCAR-5 ovarian): 19.9 µM
TGI (OVCAR-5 ovarian): 93.3 µM
GI50 (OVCAR-8 ovarian): 36.2 µM
TGI (OVCAR-8 ovarian): > 100 µM
GI50 (PC-3 prostate): 10.9 µM
TGI (PC-3 prostate): > 100 µM
GI50 (RPMI-8226 leukemia): 14.7 µM
TGI (RPMI-8226 leukemia): > 100 µM
GI50 (RXF 393 renal): 2.47 µM
TGI (RXF 393 renal): 6.88 µM
GI50 (SF-268 CNS): 2.5 µM
TGI (SF-268 CNS): 6.66 µM
GI50 (SF-295 CNS): 2.25 µM
TGI (SF-295 CNS): 37.2 µM
GI50 (SF-539 CNS): 5.2 µM
TGI (SF-539 CNS): 27.8 µM
GI50 (SK-MEL-28 melanoma): 29.4 µM
TGI (SK-MEL-28 melanoma): > 100 µM
GI50 (SK-MEL-5 melanoma): 8.55 µM
TGI (SK-MEL-5 melanoma): 33.1 µM
GI50 (SK-OV-3 ovarian): 9.39 µM
TGI (SK-OV-3 ovarian): 36.2 µM
GI50 (SN12C renal): 2.37 µM
TGI (SN12C renal): 19.5 µM
GI50 (SNB-19 CNS): 49 µM
TGI (SNB-19 CNS): > 100 µM
GI50 (SNB-75 CNS): 1.9 µM
TGI (SNB-75 CNS): 6.95 µM
GI50 (SW-620 colon): 47.2 µM
TGI (SW-620 colon): > 100 µM
GI50 (T-47D breast): 5.05 µM
TGI (T-47D breast): 26 µM
GI50 (TK-10 renal): 24.3 µM
TGI (TK-10 renal): > 100 µM
GI50 (U251 glioblastoma): 18.8 µM
TGI (U251 glioblastoma): > 100 µM
GI50 (UACC-257 melanoma): 18.9 µM
TGI (UACC-257 melanoma): > 100 µM
GI50 (UACC-62 melanoma): 5.44 µM
TGI (UACC-62 melanoma): 95.4 µM
GI50 (UO-31 renal): 23 µM
TGI (UO-31 renal): > 100 µM
